Experimental data taken from ChEMBL document CHEMBL3885861, “Open TG-GATES”.

Species: Rattus norvegicus
Assay: Open TG-GATES - Regimen: Daily Repeat
Assay type: toxicity, organism-based, Sprague-Dawley
Parameters: regimen Daily Repeat, gender Male, age 6 weeks
Conditions: in vivo, po, route gavage; for APTT / Bas / Eos / Fbg / Hb / Ht / Lym / MCH / MCHC / MCV / Mono / Neu / PT / Plat / RBC / Ret / WBC: tissue Blood; for KIDNEY_L / KIDNEY_R / KIDNEY_TOTAL: tissue Kidney; for LIVER: tissue Liver; for A/G / ALP / ALT / AST / BUN / CRE / Ca / Cl / DBIL / GLC / IP / K / LDH / Na / PL / RALB / TBIL / TC / TG / TP / gamma-GTP: tissue Plasma
[1] = 30 mg/kg, 72 h, dose level Middle, time 3 day
[2] = 30 mg/kg, […], dose level Middle, time 7 day
[3] = 30 mg/kg, […], dose level Middle, time 14 day
[4] = 30 mg/kg, […], dose level Middle, time 28 day
[5] = 100 mg/kg, 72 h, dose level High, time 3 day
[6] = 100 mg/kg, […], dose level High, time 7 day
[7] = 100 mg/kg, […], dose level High, time 14 day
[8] = 100 mg/kg, […], dose level High, time 28 day

## CCC1(c2ccccc2)C(=O)NC(=O)NC1=O [PHENOBARBITAL]
[1]
  TERMINAL_BW: 222.1 g
  APTT: 15.2 s
  Bas: 0%
  Eos: 0.6%
  Fbg: 228.4 mg/dL
  Hb: 13.5 g/dL
  Ht: 40.1%
  Lym: 81.2%
  MCH: 21.8 pg
  MCHC: 33.7%
  MCV: 64.9 fL
  Mono: 6.4%
  Neu: 12%
  PT: 11.2 s
  Plat: 118.8 x10_4/uL
  RBC: 618 x10_4/ul
  Ret: 7.6%
  WBC: 95.1 x10_2/uL
  KIDNEY_L: 0.9 g
  KIDNEY_R: 0.9 g
  KIDNEY_TOTAL: 1.9 g
  LIVER: 12.5 g
  A/G: 1.6
  ALP: 932 IU/L
  ALT: 36.6 IU/L
  AST: 63.2 IU/L
  BUN: 17.2 mg/dL
  CRE: 0.6 mg/dL
  Ca: 11.2 mg/dL
  Cl: 105.2 meq/L
  DBIL: 0.026 mg/dL
  GLC: 201 mg/dL
  IP: 9.2 mg/dL
  K: 4.5 meq/L
  LDH: 128.8 IU/L
  Na: 139.8 meq/L
  PL: 168.6 mg/dL
  RALB: 3.6 g/dL
  TBIL: 0.4 mg/dL
  TC: 92 mg/dL
  TG: 116.4 mg/dL
  TP: 5.9 g/dL
  gamma-GTP: 1.2 IU/L
[2]
  TERMINAL_BW: 261.6 g
  APTT: 15.6 s
  Bas: 0%
  Eos: 0.2%
  Fbg: 242.4 mg/dL
  Hb: 13.6 g/dL
  Ht: 40.8%
  Lym: 80.8%
  MCH: 21.6 pg
  MCHC: 33.3%
  MCV: 64.9 fL
  Mono: 6.6%
  Neu: 12%
  PT: 11.6 s
  Plat: 120.5 x10_4/uL
  RBC: 629.6 x10_4/ul
  Ret: 6.9%
  WBC: 121 x10_2/uL
  KIDNEY_L: 1.1 g
  KIDNEY_R: 1.1 g
  KIDNEY_TOTAL: 2.2 g
  LIVER: 14.7 g
  A/G: 1.5
  ALP: 888 IU/L
  ALT: 29.8 IU/L
  AST: 58.4 IU/L
  BUN: 18.8 mg/dL
  CRE: 0.6 mg/dL
  Ca: 11 mg/dL
  Cl: 106.4 meq/L
  DBIL: 0.042 mg/dL
  GLC: 204 mg/dL
  IP: 8.8 mg/dL
  K: 4.6 meq/L
  LDH: 95 IU/L
  Na: 140.8 meq/L
  PL: 157 mg/dL
  RALB: 3.6 g/dL
  TBIL: 0.4 mg/dL
  TC: 85 mg/dL
  TG: 115.2 mg/dL
  TP: 6 g/dL
  gamma-GTP: 1.2 IU/L
[3]
  TERMINAL_BW: 299.2 g
  APTT: 17.6 s
  Bas: 0%
  Eos: 0%
  Fbg: 229 mg/dL
  Hb: 14.6 g/dL
  Ht: 44.3%
  Lym: 88%
  MCH: 20.3 pg
  MCHC: 33%
  MCV: 61.5 fL
  Mono: 3%
  Neu: 8.4%
  PT: 11.6 s
  Plat: 114.8 x10_4/uL
  RBC: 720.6 x10_4/ul
  Ret: 4.8%
  WBC: 130.2 x10_2/uL
  KIDNEY_L: 1.2 g
  KIDNEY_R: 1.2 g
  KIDNEY_TOTAL: 2.3 g
  LIVER: 15.9 g
  A/G: 1.4
  ALP: 718.2 IU/L
  ALT: 27.6 IU/L
  AST: 61.8 IU/L
  BUN: 19.6 mg/dL
  CRE: 0.6 mg/dL
  Ca: 10.9 mg/dL
  Cl: 107 meq/L
  DBIL: 0.008 mg/dL
  GLC: 205.8 mg/dL
  IP: 8.5 mg/dL
  K: 4.2 meq/L
  LDH: 84.6 IU/L
  Na: 142 meq/L
  PL: 148.4 mg/dL
  RALB: 3.8 g/dL
  TBIL: 0.3 mg/dL
  TC: 79.2 mg/dL
  TG: 116.2 mg/dL
  TP: 6.5 g/dL
  gamma-GTP: 1 IU/L
[4]
  TERMINAL_BW: 388.6 g
  APTT: 18.2 s
  Bas: 0%
  Eos: 1%
  Fbg: 215 mg/dL
  Hb: 15.1 g/dL
  Ht: 45%
  Lym: 82.6%
  MCH: 19.5 pg
  MCHC: 33.6%
  MCV: 58 fL
  Mono: 5.2%
  Neu: 11.6%
  PT: 12.2 s
  Plat: 103 x10_4/uL
  RBC: 777.2 x10_4/ul
  Ret: 3%
  WBC: 150 x10_2/uL
  KIDNEY_L: 1.3 g
  KIDNEY_R: 1.3 g
  KIDNEY_TOTAL: 2.7 g
  LIVER: 18 g
  A/G: 1.5
  ALP: 631.8 IU/L
  ALT: 32.2 IU/L
  AST: 58.6 IU/L
  BUN: 20.6 mg/dL
  CRE: 0.4 mg/dL
  Ca: 10.4 mg/dL
  Cl: 108 meq/L
  DBIL: 0.03 mg/dL
  GLC: 194.4 mg/dL
  IP: 7.5 mg/dL
  K: 4.8 meq/L
  LDH: 70 IU/L
  Na: 139.6 meq/L
  PL: 143.4 mg/dL
  RALB: 3.8 g/dL
  TBIL: 0.4 mg/dL
  TC: 76.8 mg/dL
  TG: 88.8 mg/dL
  TP: 6.3 g/dL
  gamma-GTP: 2.6 IU/L
[5]
  TERMINAL_BW: 223.9 g
  APTT: 15.7 s
  Bas: 0%
  Eos: 0.4%
  Fbg: 214.6 mg/dL
  Hb: 13.6 g/dL
  Ht: 40.7%
  Lym: 82.8%
  MCH: 21.9 pg
  MCHC: 33.3%
  MCV: 65.9 fL
  Mono: 6.8%
  Neu: 10%
  PT: 11.4 s
  Plat: 115.9 x10_4/uL
  RBC: 617.6 x10_4/ul
  Ret: 6.6%
  WBC: 159.6 x10_2/uL
  KIDNEY_L: 1 g
  KIDNEY_R: 1 g
  KIDNEY_TOTAL: 2 g
  LIVER: 14.1 g
  A/G: 1.6
  ALP: 945.6 IU/L
  ALT: 37 IU/L
  AST: 60.6 IU/L
  BUN: 14.2 mg/dL
  CRE: 0.5 mg/dL
  Ca: 10.8 mg/dL
  Cl: 104.6 meq/L
  DBIL: 0.028 mg/dL
  GLC: 188.6 mg/dL
  IP: 8 mg/dL
  K: 5.1 meq/L
  LDH: 112.4 IU/L
  Na: 137.4 meq/L
  PL: 157.2 mg/dL
  RALB: 3.6 g/dL
  TBIL: 0.4 mg/dL
  TC: 82.2 mg/dL
  TG: 118.6 mg/dL
  TP: 5.9 g/dL
  gamma-GTP: 1 IU/L
[6]
  TERMINAL_BW: 257.9 g
  APTT: 16.7 s
  Bas: 0%
  Eos: 1%
  Fbg: 241.6 mg/dL
  Hb: 13.8 g/dL
  Ht: 41.4%
  Lym: 78.8%
  MCH: 22 pg
  MCHC: 33.4%
  MCV: 66 fL
  Mono: 7.4%
  Neu: 13%
  PT: 11.5 s
  Plat: 116.8 x10_4/uL
  RBC: 629.6 x10_4/ul
  Ret: 7.5%
  WBC: 104.3 x10_2/uL
  KIDNEY_L: 1.1 g
  KIDNEY_R: 1.1 g
  KIDNEY_TOTAL: 2.1 g
  LIVER: 17.1 g
  A/G: 1.5
  ALP: 717.2 IU/L
  ALT: 32.6 IU/L
  AST: 58.8 IU/L
  BUN: 18 mg/dL
  CRE: 0.6 mg/dL
  Ca: 11 mg/dL
  Cl: 106 meq/L
  DBIL: 0.054 mg/dL
  GLC: 199 mg/dL
  IP: 8.1 mg/dL
  K: 4.6 meq/L
  LDH: 145 IU/L
  Na: 140.4 meq/L
  PL: 160.2 mg/dL
  RALB: 3.8 g/dL
  TBIL: 0.4 mg/dL
  TC: 88.4 mg/dL
  TG: 71.6 mg/dL
  TP: 6.2 g/dL
  gamma-GTP: 1.6 IU/L
[7]
  TERMINAL_BW: 304.3 g
  APTT: 17.5 s
  Bas: 0%
  Eos: 0%
  Fbg: 228.6 mg/dL
  Hb: 14.7 g/dL
  Ht: 43.9%
  Lym: 86%
  MCH: 20.7 pg
  MCHC: 33.4%
  MCV: 61.9 fL
  Mono: 4.2%
  Neu: 9.4%
  PT: 11.5 s
  Plat: 115.5 x10_4/uL
  RBC: 709.4 x10_4/ul
  Ret: 5%
  WBC: 166 x10_2/uL
  KIDNEY_L: 1.2 g
  KIDNEY_R: 1.2 g
  KIDNEY_TOTAL: 2.4 g
  LIVER: 18.1 g
  A/G: 1.4
  ALP: 757.4 IU/L
  ALT: 32 IU/L
  AST: 65.4 IU/L
  BUN: 19.4 mg/dL
  CRE: 0.6 mg/dL
  Ca: 10.7 mg/dL
  Cl: 107.2 meq/L
  DBIL: 0.004 mg/dL
  GLC: 180 mg/dL
  IP: 8.4 mg/dL
  K: 4.2 meq/L
  LDH: 151.2 IU/L
  Na: 141.4 meq/L
  PL: 156 mg/dL
  RALB: 3.9 g/dL
  TBIL: 0.4 mg/dL
  TC: 91.4 mg/dL
  TG: 60.4 mg/dL
  TP: 6.5 g/dL
  gamma-GTP: 1.4 IU/L
[8]
  TERMINAL_BW: 378.9 g
  APTT: 19.1 s
  Bas: 0%
  Eos: 0.4%
  Fbg: 226.8 mg/dL
  Hb: 15.3 g/dL
  Ht: 46.1%
  Lym: 87.8%
  MCH: 19.8 pg
  MCHC: 33.2%
  MCV: 59.4 fL
  Mono: 2.2%
  Neu: 9.6%
  PT: 12.4 s
  Plat: 105.1 x10_4/uL
  RBC: 775.6 x10_4/ul
  Ret: 3%
  WBC: 170.6 x10_2/uL
  KIDNEY_L: 1.4 g
  KIDNEY_R: 1.4 g
  KIDNEY_TOTAL: 2.8 g
  LIVER: 20.8 g
  A/G: 1.4
  ALP: 536 IU/L
  ALT: 34.6 IU/L
  AST: 64.6 IU/L
  BUN: 21.2 mg/dL
  CRE: 0.4 mg/dL
  Ca: 10.7 mg/dL
  Cl: 106.2 meq/L
  DBIL: 0.014 mg/dL
  GLC: 180 mg/dL
  IP: 7.7 mg/dL
  K: 4.9 meq/L
  LDH: 138.8 IU/L
  Na: 141.6 meq/L
  PL: 144.8 mg/dL
  RALB: 4 g/dL
  TBIL: 0.4 mg/dL
  TC: 79.6 mg/dL
  TG: 76.2 mg/dL
  TP: 6.8 g/dL
  gamma-GTP: 2 IU/L
